Experimental data reported in ChEMBL document CHEMBL3879915, “Methods of inhibiting PRMT5” (2014).

These molecules were tested against PRMT5/MEP50 complex (Homo sapiens, UniProt O14744) (assay: Inhibition of recombinant human fetal brain FLAG-tagged PRMT5/full length human testis 6His-tagged MEP50 expressed in baculovirus infected insect Sf9 cells using human histone H4 (1 to 15 residues) as substrate preincubated for 30 mins followed by [3H]-SAM addition).
PRMT5/MEP50 complex, sequence (O14744 whole entry, the tested form may be a part): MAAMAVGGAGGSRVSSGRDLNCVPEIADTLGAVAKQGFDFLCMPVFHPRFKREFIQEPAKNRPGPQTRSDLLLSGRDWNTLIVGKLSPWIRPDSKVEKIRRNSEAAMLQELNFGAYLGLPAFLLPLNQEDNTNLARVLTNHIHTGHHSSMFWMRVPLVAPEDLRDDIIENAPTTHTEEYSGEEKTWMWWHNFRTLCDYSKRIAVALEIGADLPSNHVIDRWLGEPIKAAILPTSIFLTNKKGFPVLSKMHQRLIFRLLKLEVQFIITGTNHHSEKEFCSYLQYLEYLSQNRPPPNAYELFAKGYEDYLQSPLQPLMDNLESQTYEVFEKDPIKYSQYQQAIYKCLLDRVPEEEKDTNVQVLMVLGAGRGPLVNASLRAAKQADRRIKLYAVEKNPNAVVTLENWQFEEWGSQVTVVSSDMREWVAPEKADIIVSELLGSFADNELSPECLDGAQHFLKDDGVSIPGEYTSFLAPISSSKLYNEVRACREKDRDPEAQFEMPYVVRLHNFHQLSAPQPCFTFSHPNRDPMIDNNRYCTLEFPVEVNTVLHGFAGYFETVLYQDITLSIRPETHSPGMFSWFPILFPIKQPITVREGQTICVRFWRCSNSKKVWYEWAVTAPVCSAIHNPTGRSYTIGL
PRMT5/MEP50 complex, sequence (Q9BQA1 whole entry, further chain, the tested form may be a part): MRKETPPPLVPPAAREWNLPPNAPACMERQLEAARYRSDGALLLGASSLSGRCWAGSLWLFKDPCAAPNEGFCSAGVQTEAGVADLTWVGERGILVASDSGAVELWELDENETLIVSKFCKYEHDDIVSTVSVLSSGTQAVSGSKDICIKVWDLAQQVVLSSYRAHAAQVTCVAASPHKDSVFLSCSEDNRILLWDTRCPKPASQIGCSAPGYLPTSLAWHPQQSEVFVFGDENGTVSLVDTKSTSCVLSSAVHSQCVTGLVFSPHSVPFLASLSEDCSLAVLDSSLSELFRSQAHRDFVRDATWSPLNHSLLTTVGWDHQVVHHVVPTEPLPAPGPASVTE

SMILES	IC50
Cn1cnc2ccc(-c3cccc(OCC(O)CN4CCc5ccccc5C4CC(N)=O)c3)cc21 (centres undefined)	> 40 µM
O=C(Cc1ccccc1)NC[C@@H](O)CN1CCc2ccccc2C1	10 to 50 µM
COc1ccc(Cn2ccc(-c3ccc(OC[C@@H](O)CN4CCc5ccccc5C4)cc3)n2)cc1	10 to 40 µM
O=C(COc1ccccc1-c1c[nH]cn1)NCC(O)CN1CCc2ccccc2C1 (centres undefined)	10 to 50 µM
Cc1cccc(N2CCN(CC(O)CN3CCc4ccccc4C3)C(=O)C2)c1 (centres undefined)	10 to 50 µM
COc1cccc2c1CCN(CC(O)COc1cccc(CNC3CCCC3)c1)C2 (centres undefined)	> 40 µM
Cc1cccc2c1CN(CC(O)COc1cccc(-c3ccc4ncn(C)c4c3)c1)CC2 (centres undefined)	1 to 10 µM
OC(COc1cccc(-c2cncnc2)c1)CN1CCc2ccccc2C1 (centres undefined)	1 to 10 µM
CS(=O)(=O)Nc1ncccc1OCC(=O)NCC(O)CN1CCc2ccccc2C1 (centres undefined)	> 10 µM
CN(C)c1cccnc1OCC(=O)NCC(O)CN1CCc2ccccc2C1 (centres undefined)	> 10 µM
O=C1CC(c2ccccc2)CCN1C[C@H](O)CN1CCc2ccccc2C1 (some centres undefined)	1 to 10 µM
OC(COc1ccccc1N1CCNCC1)CN1CCc2ccccc2C1 (centres undefined)	10 to 40 µM
OC(COc1ccccc1C1CCCCC1)CN1CCc2ccccc2C1 (centres undefined)	1 to 10 µM
COc1ccccc1-c1cccc(OCC(O)CN2CCc3ccccc3C2)c1 (centres undefined)	1 to 10 µM
CC(=O)Nc1cncc(OCC(=O)NCC(O)CN2CCc3ccccc3C2)c1 (centres undefined)	> 10 µM
O=C(COc1cccc2cccnc12)NCC(O)CN1Cc2ccccc2C(F)(F)C1 (centres undefined)	> 10 µM
OC(COc1cccc(-c2ccccn2)c1)CN1CCc2ccccc2C1 (centres undefined)	1 to 10 µM
COc1ccc(Cn2nccc2-c2ccc(OC[C@@H](O)CN3CCc4ccccc4C3)cc2)cc1	> 40 µM
COc1cccc2c1CN(CC(O)COc1cccc(-c3ccc4ncn(C)c4c3)c1)CC2 (centres undefined)	1 to 10 µM
OC(COc1cccc2ccc(N3CCOCC3)nc12)CN1CCc2ccccc2C1 (centres undefined)	1 to 10 µM
OC(COc1cccc(CNC2CCNCC2)c1)CN1CCc2ccccc2C1 (centres undefined)	1 to 10 µM
Cc1ccc(-c2cccc(OCC(O)CN3CCc4ccccc4C3)c2)cn1 (centres undefined)	1 to 10 µM
O=c1cc(Nc2ccccc2)ccn1C[C@H](O)CN1CCc2ccccc2C1	1 to 10 µM
O=C(NC1CCOCC1)c1cccc(NCC(O)CN2CCc3ccccc3C2)c1 (centres undefined)	10 to 40 µM

SMILES	IC50
Cn1cncc1C(=O)Nc1cccc(OC[C@@H](O)CN2CCc3ccccc3C2)c1	1 to 10 µM
CC(=O)N1CCN(CC(O)CN2CCc3ccccc3C2)C(=O)C1 (centres undefined)	1 to 10 µM
O=C1CN(Cc2cccnc2)CCN1CC(O)CN1CCc2ccccc2C1 (centres undefined)	1 to 10 µM
CN(C(=O)c1cnco1)c1cccc(OCC(O)CN2CCc3ccccc3C2)c1 (centres undefined)	1 to 10 µM
CN(C)S(=O)(=O)c1cccc(-c2cccc(OCC(O)CN3CCc4ccccc4C3)c2)c1 (centres undefined)	> 40 µM
NS(=O)(=O)c1cccc(OCC(=O)NCC(O)CN2CCc3ccccc3C2)c1 (centres undefined)	1 to 10 µM
O=C(COc1cccc2[nH]c(=O)cnc12)NCC(O)CN1CCc2ccccc2C1 (centres undefined)	1 to 10 µM
OC(COc1cccc(N2CCc3[nH]nc(-c4ccccc4)c3C2)c1)CN1CCc2ccccc2C1 (centres undefined)	1 to 10 µM
COc1ccc(Cn2ccc(-c3ccc(OC[C@H](O)CN4CCc5ccccc5C4)cc3)n2)cc1	1 to 10 µM
COc1ccc(Cn2nccc2-c2ccc(OC[C@H](O)CN3CCc4ccccc4C3)cc2)cc1	1 to 10 µM
OC(COCc1cccnc1)CN1CCc2ccccc2C1 (centres undefined)	10 to 40 µM
CC(=O)Nc1cccnc1OCC(=O)NCC(O)CN1CCc2ccccc2C1 (centres undefined)	> 50 µM
Cn1cnc2ccc(-c3cccc(OC[C@@H](O)CN4Cc5ccccc5C4)c3)cc21	10 to 50 µM
O=C1CN(C2CCOCC2)CCN1CC(O)CN1CCc2ccccc2C1 (centres undefined)	1 to 10 µM
OC(COc1cccc(-c2ccncc2)c1)CN1CCc2ccccc2C1 (centres undefined)	1 to 10 µM
OC(COC1CCN(Cc2ccccc2)C1)CN1CCc2ccccc2C1 (centres undefined)	1 to 10 µM
Cn1cnc2ccc(-c3cccc(OCC(O)CN4CCc5ccccc5C4Cc4ccccc4)c3)cc21 (centres undefined)	> 40 µM
Cn1cncc1C(=O)Nc1cccc(OCC(O)CN2CCc3ccccc3C2)c1 (centres undefined)	1 to 10 µM
CS(=O)(=O)Nc1ccccc1C(=O)NCC(O)CN1CCc2ccccc2C1 (centres undefined)	1 to 10 µM
O=C(NCC(O)CN1CCc2ccccc2C1)c1cccc(C(=O)N2CCOCC2)c1 (centres undefined)	1 to 10 µM
CC1Cc2ccccc2CN1CC(O)COc1cccc(CNC2CCCC2)c1 (centres undefined)	> 40 µM
OC(COCc1ccc(CN2CCOCC2)cc1)CN1CCc2ccccc2C1 (centres undefined)	1 to 10 µM
OC(COc1cccc(C2=CCCCC2)c1)CN1CCc2ccccc2C1 (centres undefined)	1 to 10 µM
O=C(c1cncc(-c2cccc(OCC(O)CN3CCc4ccccc4C3)c2)c1)N1CCCC1 (centres undefined)	1 to 10 µM

SMILES	IC50
O=C(Cc1ccncc1)NCC(O)CN1CCc2ccccc2C1 (centres undefined)	10 to 50 µM
CC(C)(C)OC(=O)N1CCC(OCC(O)CN2CCc3ccccc3C2)C1 (centres undefined)	1 to 10 µM
O=C(COc1ccccc1)NC[C@@H](O)CN1CCc2ccccc2C1	1 to 10 µM
O=C(Nc1cccc(OCC(O)CN2CCc3ccccc3C2)c1)c1ccnnc1 (centres undefined)	1 to 10 µM
O=C(COc1ccccc1C1CNC1)NCC(O)CN1CCc2ccccc2C1 (centres undefined)	1 to 10 µM
CN(CC(O)CN1CCc2ccccc2C1)C(=O)COc1ccccc1 (centres undefined)	10 to 50 µM
O=C(COC1CCOCC1)NCC(O)CN1CCc2ccccc2C1 (centres undefined)	1 to 10 µM
Cn1cnc2ccc(-c3cccc(OCC(O)CN4CCc5c(Cl)cccc5C4)c3)cc21 (centres undefined)	1 to 10 µM
O=C(NC1CCOCC1)C1CC(=O)N(CC(O)CN2CCc3ccccc3C2)C1 (centres undefined)	> 10 µM
CN(C(=O)c1cn(C)cn1)c1cccc(OCC(O)CN2CCc3ccccc3C2)c1 (centres undefined)	1 to 10 µM
CC(C)(C)OC(=O)Nc1ccccc1OCC(=O)NCC(O)CN1CCc2ccccc2C1 (centres undefined)	1 to 10 µM
O=C(COCc1cccnc1)NCC(O)CN1CCc2ccccc2C1 (centres undefined)	1 to 10 µM
CN1CCC(c2ccccc2OCC(=O)NCC(O)CN2CCc3ccccc3C2)C1 (centres undefined)	1 to 10 µM
Cn1cc(-c2cccc(OCC(O)CN3CCc4ccccc4C3)c2)cn1 (centres undefined)	1 to 10 µM
COc1ccc(Cl)c(-c2cccc(OCC(O)CN3CCc4ccccc4C3)c2)c1 (centres undefined)	1 to 10 µM
OC(COc1cccc(-c2cccnc2)c1)CN1CCc2ccccc2C1 (centres undefined)	1 to 10 µM
OC(COc1ccc(-c2ccn[nH]2)cc1)CN1CCc2ccccc2C1 (centres undefined)	1 to 10 µM
OC(COC1CCCC1)CN1CCc2ccccc2C1 (centres undefined)	1 to 10 µM
OC(COc1cccc(-c2cccc(Oc3ccccc3)c2)c1)CN1CCc2ccccc2C1 (centres undefined)	1 to 10 µM
OC(COc1cccc(OCc2ccccc2)c1)CN1CCc2ccccc2C1 (centres undefined)	1 to 10 µM
Cn1cnc2ccc(-c3cccc(OCC(O)CN4CCc5ccccc5C4COc4ccccc4)c3)cc21 (centres undefined)	> 40 µM
CS(=O)(=O)N1CCN(CC(O)CN2CCc3ccccc3C2)C(=O)C1 (centres undefined)	1 to 10 µM
COc1ncc(-c2cccc(OCC(O)CN3CCc4ccccc4C3)c2)cn1 (centres undefined)	1 to 10 µM
OC(COCc1ccccn1)CN1CCc2ccccc2C1 (centres undefined)	10 to 40 µM

The remaining lines, values ahead:

IC50	SMILES
1 to 10 µM	OC(COC1CCCN(c2ccccc2)C1)CN1CCc2ccccc2C1 (centres undefined)
0.101 to 1 µM	O=C(COc1cccc2c1CCCN2)NCC(O)CN1CCc2ccccc2C1 (centres undefined)
1 to 10 µM	NS(=O)(=O)c1ccccc1C(=O)NCC(O)CN1CCc2ccccc2C1 (centres undefined)
< 0.1 µM	O=C(NCC(O)CN1CCc2ccccc2C1)c1ccc(OC2CCOCC2)cc1 (centres undefined)
0.101 to 1 µM	COc1cc(NC2CCOCC2)cc(C(=O)NCC(O)CN2CCc3ccccc3C2)c1 (centres undefined)
1 to 10 µM	C[C@@H](Oc1cccc2cccnc12)C(=O)NC[C@@H](O)CN1Cc2ccccc2C1
1 to 10 µM	CN1CC(c2ccccc2OCC(=O)NCC(O)CN2CCc3ccccc3C2)C1 (centres undefined)
0.101 to 1 µM	OC(COc1cccc(CNC2CCOCC2)c1)CN1CCc2ccccc2C1 (centres undefined)
1 to 10 µM	O=C(Nc1cccc(OCC(O)CN2CCc3ccccc3C2)c1)c1cocn1 (centres undefined)
1 to 10 µM	CS(=O)(=O)c1ccc(OCC(=O)NCC(O)CN2CCc3ccccc3C2)cc1 (centres undefined)
1 to 10 µM	O=C1CN(Cc2ccccc2)CCN1CC(O)CN1CCc2ccccc2C1 (centres undefined)
0.101 to 1 µM	OC(COc1cccc(CNc2cc[nH]n2)c1)CN1CCc2ccccc2C1 (centres undefined)
1 to 10 µM	O=C(COc1ccccc1OCCN1CCOCC1)NC[C@@H](O)CN1CCc2ccccc2C1
1 to 10 µM	Cc1ccc2c(c1)CN(CC(O)COc1cccc(-c3ccc4ncn(C)c4c3)c1)CC2 (centres undefined)
< 0.1 µM	OC(CNc1cc(-c2ccc3ncn(C4CNC4)c3c2)ccn1)CN1CCc2ccccc2C1 (centres undefined)
1 to 10 µM	O=C(COc1cccc(NC2CCOCC2)n1)NCC(O)CN1CCc2ccccc2C1 (centres undefined)
1 to 10 µM	O=C(Nc1cc[nH]n1)c1cccc(OCC(O)CN2CCc3ccccc3C2)c1 (centres undefined)
1 to 10 µM	Nc1cccc(C(=O)NCC(O)CN2Cc3ccccc3C2)c1 (centres undefined)
1 to 10 µM	O=C(COc1cccc2cccnc12)NC[C@@H](O)CN1Cc2ccccc2C1

IC50	SMILES
1 to 10 µM	OCc1ccc(-c2cccc(OCC(O)CN3CCc4ccccc4C3)c2)cc1 (centres undefined)
1 to 10 µM	Cc1cccc2c1CCN(CC(O)COc1cccc(-c3ccc4ncn(C)c4c3)c1)C2 (centres undefined)
1 to 10 µM	CN(C)c1ccc(N2CCN(C[C@H](O)CN3CCc4ccccc4C3)C(=O)C2)cc1
1 to 10 µM	OC(COc1cccc(-c2ccncc2F)c1)CN1CCc2ccccc2C1 (centres undefined)
1 to 10 µM	OC(COc1cccc(-c2cccc(C(F)(F)F)c2)c1)CN1CCc2ccccc2C1 (centres undefined)
1 to 10 µM	CN(CC(O)CN1CCc2ccccc2C1)C(=O)CCc1ccccc1 (centres undefined)
0.101 to 1 µM	CC(=O)N1CCC(n2cnc3ccc(-c4cccc(OCC(O)CN5CCc6ccccc6C5)c4)cc32)CC1 (centres undefined)
0.101 to 1 µM	OC(COc1cccc(CNC2CCCCC2)c1)CN1CCc2ccccc2C1 (centres undefined)
< 0.1 µM	O=C(NCC(O)CN1CCc2ccccc2C1)c1cc(NC2CCOCC2)ccn1 (centres undefined)
0.101 to 1 µM	Cc1cc(OCC(O)CN2CCc3ccccc3C2)c(C)cc1CN1CCOCC1 (centres undefined)
0.101 to 1 µM	O=C(NCC(O)CN1CCc2ccccc2C1)c1cc(NC2CCOCC2)ccc1F (centres undefined)
0.101 to 1 µM	Cn1cnc2ccc(N3CCCC(OCC(O)CN4CCc5ccccc5C4)C3)cc21 (centres undefined)
0.101 to 1 µM	O=C(NCC(O)CN1CCc2ccccc2C1)c1cccc(NC2COC2)c1 (centres undefined)
0.101 to 1 µM	O=C(Cn1ccc2cnc(-c3cccc(OCC(O)CN4CCc5ccccc5C4)c3)nc21)N1CCCCC1 (centres undefined)
0.101 to 1 µM	OC(COCc1cc(-c2ccc(Cl)cc2)no1)CN1CCc2ccccc2C1 (centres undefined)
0.101 to 1 µM	OC(COc1ccc(OCC(O)CN2CCc3ccccc3C2)cc1)CN1CCc2ccccc2C1 (centres undefined)
0.101 to 1 µM	CN1CCCc2c(OCC(=O)NCC(O)CN3CCc4ccccc4C3)cccc21 (centres undefined)
< 0.1 µM	O=C(COc1cccc2c1CCCN2Cc1ccccc1)NCC(O)CN1CCc2ccccc2C1 (centres undefined)
